{
  "source": "patent US8071287B2",
  "about": "“Pharmaceutical and therapeutic applications relating to a type 9 adenylyl cyclase Polymorphism in asthma and reversible bronchial obstruction” (priority 2005, dated 2011)",
  "key": {"[1]": {"target": "T1, Met772 AC9 (Homo sapiens, UniProt O60503, I772M)", "T1 construct": "expressed in transfected cells", "T1 sequence (O60503 1-1353 I772M)": "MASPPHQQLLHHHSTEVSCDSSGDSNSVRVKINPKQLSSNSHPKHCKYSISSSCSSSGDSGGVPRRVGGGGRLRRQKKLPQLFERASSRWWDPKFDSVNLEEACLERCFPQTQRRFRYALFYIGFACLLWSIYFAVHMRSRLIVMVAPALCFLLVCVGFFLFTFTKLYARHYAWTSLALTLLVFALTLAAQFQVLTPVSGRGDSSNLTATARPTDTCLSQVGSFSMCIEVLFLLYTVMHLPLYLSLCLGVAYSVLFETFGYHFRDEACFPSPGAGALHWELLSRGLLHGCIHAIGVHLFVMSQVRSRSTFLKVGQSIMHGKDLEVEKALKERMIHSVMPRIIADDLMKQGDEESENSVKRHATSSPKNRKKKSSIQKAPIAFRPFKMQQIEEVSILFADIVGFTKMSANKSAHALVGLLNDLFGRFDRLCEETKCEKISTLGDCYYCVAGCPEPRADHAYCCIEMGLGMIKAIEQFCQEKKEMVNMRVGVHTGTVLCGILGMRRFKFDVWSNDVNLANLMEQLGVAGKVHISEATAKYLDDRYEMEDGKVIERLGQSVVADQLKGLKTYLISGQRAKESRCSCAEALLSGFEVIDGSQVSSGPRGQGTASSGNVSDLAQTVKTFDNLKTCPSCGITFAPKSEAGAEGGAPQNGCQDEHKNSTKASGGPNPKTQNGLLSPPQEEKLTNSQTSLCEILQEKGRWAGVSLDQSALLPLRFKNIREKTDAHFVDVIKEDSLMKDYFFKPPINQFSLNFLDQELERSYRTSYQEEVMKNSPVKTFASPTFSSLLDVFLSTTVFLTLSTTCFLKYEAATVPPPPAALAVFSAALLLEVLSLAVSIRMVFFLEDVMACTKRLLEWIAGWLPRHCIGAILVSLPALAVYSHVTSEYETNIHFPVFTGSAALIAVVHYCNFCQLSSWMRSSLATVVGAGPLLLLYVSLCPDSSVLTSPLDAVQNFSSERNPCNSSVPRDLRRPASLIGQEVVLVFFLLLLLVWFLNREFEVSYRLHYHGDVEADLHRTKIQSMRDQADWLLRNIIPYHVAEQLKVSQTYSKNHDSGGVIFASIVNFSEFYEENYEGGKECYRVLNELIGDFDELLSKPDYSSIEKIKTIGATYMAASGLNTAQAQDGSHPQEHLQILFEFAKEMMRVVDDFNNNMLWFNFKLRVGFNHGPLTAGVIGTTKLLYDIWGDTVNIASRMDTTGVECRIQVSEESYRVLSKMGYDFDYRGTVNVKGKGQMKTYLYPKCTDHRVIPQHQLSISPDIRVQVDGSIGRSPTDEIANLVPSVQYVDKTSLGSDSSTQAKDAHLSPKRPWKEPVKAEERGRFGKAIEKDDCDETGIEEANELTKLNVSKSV", "assay": "Adenylyl cyclase activities in membranes of A431 cells transfected with Met772 AC9", "assay_type": "biochemical", "settings": "10 μM albuterol; for stimulated adenylyl cyclase activities of Met772 compared to WT: no corticosteroid, 1.8 mM MnCl2 or 10 mM NaF; for albuterol stimulated adenylyl cyclase activities: Met772 cells, N=5", "excerpt": "(§1) The WT coding sequence for the human AC9 gene is considered that of GenBank accession number DQ005545. With the adenine of the initiator codon being considered nucleotide 1, a polymorphism consisting of an […] which results in […] (accession number DQ008441) was previously described in Small et al, Pharmacogenetics, 13, 535-541, supra. The cDNAs for […] (also referred to as WT) and […] coding regions were generated from human lymphocyte RNA, subcloned into pCNDA3, and transfections of A431 cells carried out as described. Selection of positive clones was carried out in media containing 400 μg/ml G418. Expression of AC9 was determined in individual clonal lines by Western blots (see below). A431 cells were grown in monolayers in Dulbecco's modified Eagle's medium with 4 mM […] 10% fetal bovine serum, 100 U/ml penicillin and 100 μg/ml streptomycin, at 37° in a 5% CO2 atmosphere. In some studies, cells at 90% confluency in the absence of serum were treated with 500 nM dexamethasone for 12 hours and then utilized as described below. […] M et al., “Beta1-adrenergic receptor polymorphisms confer differential function and predisposition to heart failure” Nat. Med., 9, 1300-1305 (2003). […] [^32P] cAMP was separated from […] by chromatography over alumina columns. The [^3H] cAMP standard included in the stop buffer accounted for individual column recovery."}, "[2]": {"system": "asthmatic children", "assay": "CAMP clinical cohort: bronchodilator response (FEV1) stratified by AC9 genotype", "assay_type": "in vivo, human", "settings": "for Bronchodilator response at baseline: at randomization", "excerpt": "The study cohort consisted of pediatric patients who participated in the Childhood Asthma Management Program (CAMP). The study was a multicenter, randomized, trial comparing regularly scheduled inhalation treatment with the corticosteroid budesonide, the putative mast-cell “stabilizer” nedocromil, and placebo. The study design has been previously published in “Long-term effects of budesonide or nedocromil in children with asthma” N. Engl. J. Med., 343, 1054-1063 (2000). […] Once per year a methacholine challenge was performed to ascertain bronchial hyperresponsiveness. The current study utilized archived DNA from patients who participated in the CAMP DNA Ancillary Study. Because of potential population stratification issues (the allele frequency of Met772 is ˜0.30 in Caucasians and ˜0.15 in African Americans) and the small number of African American children enrolled in CAMP (14%), the current study was confined to Caucasian children. […] The analysis was focused then, on 436 children, with follow-up through 48 months, the last time point in which nearly complete measures were obtained for the cohort. The subjects' parents provided informed consent, and the study was approved by the Institutional Review Boards of each participating center.\nThe AC9 SNP at nucleotide 2316 was genotyped via a SEQUENOM MassARRAY MALDI-TOF mass spectrometer (Sequenom, San Diego, Calif.) for analysis of unlabeled single-base extension minisequencing reactions with a semiautomated primer design program (Spectro[…], Sequenom). […] To assess for possible population stratification, a random panel of 49 SNPs across the genome (“stratification SNPs”), obtained through the SNP Consortium (TSC) database was also genotyped. SNPs were chosen that are widely distributed throughout the genome and exclude promoters, genomic UTRs, exons, and introns of known genes.\nBronchodilator response is defined as FEV1 after bronchodilator minus FEV1 before bronchodilator divided by FEV1 before bronchodilator times 100 [(Post-FEV1−Pre-FEV1)/(Pre-FEV1)×100]. Longitudinal models of bronchodilator response, using repeated measures modeling with time as a linear effect and an unstructured covariance matrix, are used. These models evaluate change in bronchodilator response beginning at the 2 month follow-up visit, allowing for evaluation of change based on treatment type. Univariate and multivariable analyses adjusting for age, sex, and bronchodilator response at baseline are performed, under the assumption of a dominant model. To test for interaction between steroid treatment and Ile772Met genotypic status, treatment specific strata was evaluated and included interaction terms in the models. A “mean bronchodilator” response is also derived by taking all of the observations over the 4 years and dividing by the number of visits. This value was used as the primary outcome in the haplotypic assessment of interactions between the β2AR locus and the AC9 polymorphism."}, "[3]": {"target": "T2, WT (Ile772) AC9 (Homo sapiens, UniProt O60503)", "T2 construct": "expressed in transfected cells", "T2 sequence (O60503 1-1353)": "T1 sequence (O60503 1-1353 I772M) with M772I", "assay": "Adenylyl cyclase activities in membranes of A431 cells transfected with WT (Ile772) AC9", "assay_type": "biochemical", "settings": "for albuterol stimulated adenylyl cyclase activities: WT cells, 10 μM albuterol, N=5", "excerpt": "as §1"}, "[4]": {"system": "β2AR", "assay": "125I-CYP radioligand binding for endogenous β2AR density in transfected A431 cells", "assay_type": "cell-based", "description": "The cDNAs for Ile772 (also referred to as WT) and Met772 coding regions were generated from human lymphocyte RNA, subcloned into pCNDA3, and transfections of A431 cells carried out as described. Selection of positive clones was carried out in media containing 400 μg/ml G418. Expression of AC9 was determined in individual clonal lines by Western blots (see below). A431 cells were grown in monolayers in Dulbecco's modified Eagle's medium with 4 mM L-glutamate 10% fetal bovine serum, 100 U/ml penicillin and 100 μg/ml streptomycin, at 37° in a 5% CO2 atmosphere. In some studies, cells at 90% confluency in the absence of serum were treated with 500 nM dexamethasone for 12 hours and then utilized as described below.\nTransfected A431 cells were washed three times with phosphate-buffered saline (PBS), detached by scraping in 5 mM Tris, pH 7.4, 2 mM ethylenediaminetetracetic acid (EDTA) buffer, and centrifuged at 30,000 g for 10 min. […] Nonspecific binding was determined with 1 μM propranolol. […] AC9 expression in these transfected cell lines was assessed by quantitative immunoblotting so as to select lines expressing Ile772 or Met772 at the same levels for pharmacologic studies, and to ascertain if corticosteroid treatment altered expression. […] Relative levels of AC9 expression were subsequently determined using ScanAnalysis software (BioSoft, Cambridge, UK)."}, "[5]": {"settings": "after dexamethasone treatment (500 nM)"}},
  "note": "Substitutions are numbered along the chain they refer to.",
  "data": [
    {"molecule": "[Cl][Mn][Cl]", "note": "[MnCl2]", "values": [
      {"measurement": "stimulated adenylyl cyclase activities of Met772 compared to WT", "setting": "[1]", "result": "decreased compared to WT"}
    ]},
    {"molecule": "[F-].[Na+]", "note": "[NaF]", "values": [
      {"measurement": "stimulated adenylyl cyclase activities of Met772 compared to WT", "setting": "[1]", "result": "decreased compared to WT"}
    ]},
    {"molecule": "CC(C)(C)NCC(O)c1ccc(O)c(CO)c1", "note": "(stereo not drawn) [albuterol]", "values": [
      {"measurement": "Bronchodilator response at baseline", "setting": "[2]; Met772 carriers", "result": "11.17 ± 11.24"},
      {"measurement": "average bronchodilator response (±SE), univariate", "setting": "[2]; Overall Cohort, Met772, 4 year follow-up", "result": "9.23 ± 0.34", "unit": "%"},
      {"measurement": "average bronchodilator response (±SE), multivariate", "setting": "[2]; Overall Cohort, Met772, adjusted for age, gender, inhaled steroid usage, baseline response, time", "result": "6.17 ± 0.92", "unit": "%"},
      {"measurement": "average bronchodilator response (±SE), univariate", "setting": "[2]; Overall Cohort, Wildtype, 4 year follow-up", "result": "9.41 ± 0.48", "unit": "%"},
      {"measurement": "average bronchodilator response (±SE), univariate", "setting": "[2]; Placebo Group (no inhaled steroid), Met772", "result": "9.94 ± 0.61", "unit": "%"},
      {"measurement": "average bronchodilator response (±SE), univariate", "setting": "[2]; Placebo Group (no inhaled steroid), Wildtype", "result": "10.92 ± 0.79", "unit": "%"},
      {"measurement": "average bronchodilator response (±SE), univariate", "setting": "[2]; Steroid Group (inhaled budesonide), Met772", "result": "8.72±0.54", "unit": "%"},
      {"measurement": "average bronchodilator response (±SE), multivariate", "setting": "[2]; Steroid Group (inhaled budesonide), Met772, adjusted", "result": "5.78 ± 1.49", "unit": "%"},
      {"measurement": "average bronchodilator response (±SE), univariate", "setting": "[2]; Steroid Group (inhaled budesonide), Wildtype", "result": "6.76±0.69", "unit": "%"},
      {"measurement": "Bronchodilator response at baseline", "setting": "[2]; WT patients", "result": "10.32 ± 9.18"},
      {"measurement": "albuterol stimulated adenylyl cyclase activities", "setting": "[3]; [5]", "result": "33 ± 2.5", "unit": "pmol/min/mg"},
      {"measurement": "albuterol stimulated adenylyl cyclase activities", "setting": "[3]; before dexamethasone treatment", "result": "27 ± 2.1", "unit": "pmol/min/mg"},
      {"measurement": "increase of albuterol-stimulated adenylyl cyclase response", "setting": "[3]; cells expressing Ile772 cultured in the presence of glucocorticoid", "result": "~20", "unit": "%"},
      {"measurement": "albuterol stimulated adenylyl cyclase activities", "setting": "[1]; [5]", "result": "43 ± 3.4", "unit": "pmol/min/mg"},
      {"measurement": "albuterol stimulated adenylyl cyclase activities", "setting": "[1]; before dexamethasone treatment", "result": "24 ± 1.3", "unit": "pmol/min/mg"},
      {"measurement": "stimulated adenylyl cyclase activities of Met772 compared to WT", "setting": "[1]", "result": "not different between the lines"}
    ]},
    {"molecule": "CCCC1O[C@@H]2C[C@H]3[C@@H]4CCC5=CC(=O)C=C[C@]5(C)[C@H]4[C@@H](O)C[C@]3(C)[C@]2(C(=O)CO)O1", "note": "(stereo partly drawn) [budesonide]", "values": [
      {"measurement": "increase in bronchodilation response of Met772 carriers compared to wild type", "setting": "[2]; on inhaled budesonide, univariate", "result": "~2", "unit": "percentage point"}
    ]},
    {"molecule": "C[C@@H]1C[C@H]2[C@@H]3CCC4=CC(=O)C=C[C@]4(C)[C@@]3(F)[C@@H](O)C[C@]2(C)[C@@]1(O)C(=O)CO", "note": "[dexamethasone]", "values": [
      {"measurement": "β2AR expression", "setting": "[4]; Met772 AC9 line after corticosteroid (dexamethasone) exposure, untreated 66±8.9", "result": "109 ± 9.0", "unit": "fmol/mg"},
      {"measurement": "β2AR expression", "setting": "[4]; WT AC9 line after corticosteroid (dexamethasone) exposure, untreated 51±6.2", "result": "103 ± 7.8", "unit": "fmol/mg"}
    ]}
  ]
}
